Measurements taken from ChEMBL document CHEMBL4808177, “Use of Intramolecular 1,5-Sulfur-Oxygen and 1,5-Sulfur-Halogen Interactions in the Design of N-Methyl-5-aryl-N-(2,2,6,6-tetramethylpiperidin-4-yl)-1,3,4-thiadiazol-2-amine SMN2 Splicing Modulators” (J Med Chem, 2021).
≈ marks a conversion by molar mass, not a printed value.

Legend:
[1] = Intrinsic clearance in rat liver microsomes; format: ADME, Microsome; conditions: read-out: CLH
[2] = Solubility of the compound at pH 6.8 by high-throughput miniaturized shake flask solubility assay; format: physicochemical; conditions: buffer
[3] = Clearance in Sprague-Dawley rat at 1 mg/kg, iv and 3 mg/kg, po measured up to 7 hrs by HPLC-MS/MS analysis; format: ADME, organism-based; conditions: in vivo
[4] = Apparent permeability across apical to basolateral side in human Caco-2 cells; format: ADME, cell-based
[5] = AUC (extrapolated) in Sprague-Dawley rat at 3 mg/kg, po measured up to 7 hrs by HPLC-MS/MS analysis; format: ADME, organism-based; parameters: route oral, dose 3 mg/kg, time <=7; conditions: in vivo
[6] = Cmax in Sprague-Dawley rat at 1 mg/kg, iv and 3 mg/kg, po measured up to 7 hrs by HPLC-MS/MS analysis; format: ADME, organism-based; parameters: dose 3 mg/kg, time <=7; conditions: in vivo
[7] = Volume of distribution at steady state in Sprague-Dawley rat at 1 mg/kg, iv and 3 mg/kg, po measured up to 7 hrs by HPLC-MS/MS analysis; format: ADME, organism-based; conditions: in vivo, read-out: Vdss
[8] = Modulation of SMN2 splicing in myoblast cell line derived from the SMNdelta7 mouse model assessed as increase in SMN level measured as fold activation treated for 24 hrs by ELISA; format: functional, Primary myoblast
[9] = Apparent permeability across basolateral to apical side in human Caco-2 cells; format: ADME, cell-based
[10] = Modulation of SMN2 splicing activity in myoblast cell line derived from the SMNdelta7 mouse model assessed as increase in SMN level treated for 24 hrs by ELISA relative to control; format: functional, Primary myoblast
[11] = Half life in Sprague-Dawley rat at 1 mg/kg, iv and 3 mg/kg, po measured up to 7 hrs by HPLC-MS/MS analysis; format: ADME, organism-based; conditions: in vivo
[12] = Apparent permeability from basolateral to apical side in MDCK-MDR1 cells; format: ADME, cell-based, Canis lupus familiaris; conditions: dog
[13] = Drug uptake in Sprague-Dawley rat brain at 3 mg/kg, po measured after 7 hrs by HPLC-MS/MS analysis; format: ADME, organism-based; conditions: read-out: Drug uptake
[14] = Apparent permeability from apical to basolateral side in MDCK-MDR1 cells; format: ADME, cell-based, Canis lupus familiaris; conditions: dog
[15] = Drug uptake in SMN C/+ allele mouse brain at 50 mg/kg, po measured after 4 hrs; format: ADME, organism-based; conditions: read-out: Drug uptake
[16] = Drug uptake in SMN C/+ allele mouse plasma at 50 mg/kg, po measured after 4 hrs; format: ADME, organism-based
[17] = In vivo modulation of SMN2 splicing activity in SMN C/+ allele mouse model assessed as fold increase in full length SMN protein level in brain at 50 mg/kg, po once daily for 5 days relative to control; format: functional; conditions: time 5 day
[18] = Intrinsic clearance in mouse liver microsomes; format: ADME, Microsome; conditions: read-out: CLH

| SMILES | microsomal CLint [1] [µL/min/mg] | solubility thermodynamic [2] [µM] | EC50 [8] [nM] | fold change (FC) [10] | also measured |
| --- | --- | --- | --- | --- | --- |
| CN(c1ccc(-c2cc3ccccc3s2)nn1)C1CC(C)(C)NC(C)(C)C1 | 23 | 980 (≈ 373 µg/mL) |  |  |  |
| CN(c1nnc(-c2ccc(-c3ccn(C)c(=O)c3)cc2O)s1)C1CC(C)(C)NC(C)(C)C1 |  |  | 61 | 3.4 | clearance [3]: 163 mL/min/kg; Papp A→B [4]: 3.7 ×10⁻⁶ cm/s; AUC at 7 h [5]: 0.227 µM·h; Cmax [6]: 38 nM; Vd [7]: 10.7 L/kg; Papp B→A [9]: 6.8 ×10⁻⁶ cm/s; half-life [11]: 1.3 h |
| CN(c1nnc(-c2cc(F)c(-c3cn[nH]c3)cc2F)s1)C1CC(C)(C)NC(C)(C)C1 | 48 | 122 (≈ 52.8 µg/mL) | 20 | 3.1 | Papp B→A [12]: 16 ×10⁻⁶ cm/s; concentration at 7 h [13]: 141 nM; Papp A→B [14]: 3 ×10⁻⁶ cm/s |
| CN(c1nnc(-c2sc3ccc(C#N)cc3c2Cl)s1)C1CC(C)(C)NC(C)(C)C1 | < 25 | 51 (≈ 22.7 µg/mL) | 92 | 2.5 |  |
| CN(c1nnc(-c2sc3ccccc3c2Cl)s1)C1CC(C)(C)NC(C)(C)C1 | 20 | 240 (≈ 101 µg/mL) | 530 | 2.8 |  |
| CN(c1nnc(-c2ccc(-c3cn[nH]c3)c(F)c2F)s1)C1CC(C)(C)NC(C)(C)C1 | 46 | 48 (≈ 20.8 µg/mL) | 33 | 3 | Papp B→A [12]: 8 ×10⁻⁶ cm/s; concentration at 7 h [13]: 498 nM; concentration at 4 h [15]: 2500 nM; concentration at 4 h [16]: 3600 nM; Papp A→B [14]: 3 ×10⁻⁶ cm/s; fold change (FC) [17]: 1.6 |
| CN(c1nnc(-c2ccc(-n3cccn3)cc2O)s1)C1CC(C)(C)NC(C)(C)C1 |  |  | 170 | 2.8 |  |
| COc1cc(-c2cn[nH]c2)ccc1-c1nnc(N(C)C2CC(C)(C)NC(C)(C)C2)s1 |  |  | 38 | 2.9 |  |
| COc1cc(-c2cnn(C)c2)ccc1-c1nnc(N(C)C2CC(C)(C)NC(C)(C)C2)s1 |  |  | 44 | 2.5 |  |
| CN(c1nnc(-c2ccc(-c3cn[nH]c3)cc2F)s1)C1CC(C)(C)NC(C)(C)C1 | 59 | > 1000 | 43 | 3.1 | Papp B→A [12]: 15 ×10⁻⁶ cm/s; concentration at 7 h [13]: 66 nM; Papp A→B [14]: 4 ×10⁻⁶ cm/s |
| Cc1cc(-c2ccn(C)c(=O)c2)ccc1-c1nnc(N(C)C2CC(C)(C)NC(C)(C)C2)s1 |  |  | 1100 | 2.6 |  |
| CN(c1nnc(-c2ccc(-c3cn[nH]c3)cc2Cl)s1)C1CC(C)(C)NC(C)(C)C1 | 24 | 44000 (≈ 19000 µg/mL) | 34 | 2.5 | Papp B→A [12]: 12 ×10⁻⁶ cm/s; concentration at 7 h [13]: 240 nM; Papp A→B [14]: 3 ×10⁻⁶ cm/s |
| COc1cc(-c2ccn(C)c(=O)c2)ccc1-c1nnc(N(C)C2CC(C)(C)NC(C)(C)C2)s1 |  |  | 130 | 3.2 |  |
| CN(c1nnc(-c2ccc(-c3ccn(C)c(=O)c3)cc2OC(F)(F)F)s1)C1CC(C)(C)NC(C)(C)C1 |  |  | 900 | 2.2 |  |
| CN(c1nnc(-c2c(O)cc(-c3cn[nH]c3)cc2Cl)s1)C1CC(C)(C)NC(C)(C)C1 |  | 220 (≈ 98.3 µg/mL) | 3 | 2.5 | microsomal CLint [18]: 116 µL/min/mg |
| CN(c1nnc(-c2cc(F)c(-c3cn[nH]c3)cc2Cl)s1)C1CC(C)(C)NC(C)(C)C1 | 54 | 34 (≈ 15.3 µg/mL) | 48 | 3.2 | Papp B→A [12]: 23 ×10⁻⁶ cm/s; concentration at 7 h [13]: 185 nM; Papp A→B [14]: 4 ×10⁻⁶ cm/s |
| CN(c1nnc(-c2ccc(-c3cn[nH]c3)cc2O)s1)C1CC(C)(C)NC(C)(C)C1 |  |  | 400 | 2.5 |  |
| CN(c1nnc(-c2c(O)cc(-c3cn[nH]c3)cc2F)s1)C1CC(C)(C)NC(C)(C)C1 |  |  | 6 | 2.6 | Papp B→A [12]: 41 ×10⁻⁶ cm/s; Papp A→B [14]: 10 ×10⁻⁶ cm/s; microsomal CLint [18]: 50 µL/min/mg; solubility [2]: Insoluble |
| CN(c1nnc(-c2ccc(-c3cnn(C)c3)cc2O)s1)C1CC(C)(C)NC(C)(C)C1 |  |  | 32 | 3.1 | clearance [3]: 71 mL/min/kg; Papp A→B [4]: 2.4 ×10⁻⁶ cm/s; AUC at 7 h [5]: 0.554 µM·h; Cmax [6]: 50 nM; Vd [7]: 7 L/kg; Papp B→A [9]: 2.5 ×10⁻⁶ cm/s; half-life [11]: 2 h |
| CN(c1nnc(-c2ccc(C#N)cc2O)s1)C1CC(C)(C)NC(C)(C)C1 |  |  | 8800 | 1.9 |  |
| CN(c1nnc(-c2ccc(-c3cnn(C)c3)cn2)s1)C1CC(C)(C)NC(C)(C)C1 |  |  | 680 | 2.3 |  |
| CN(c1nnc(-c2ccc(-c3cnn(C)c3)cc2C(F)(F)F)s1)C1CC(C)(C)NC(C)(C)C1 |  |  | > 30000 | 1.3 |  |
| COc1cc(C#N)ccc1-c1nnc(N(C)C2CC(C)(C)NC(C)(C)C2)s1 |  |  | 1000 | 2.2 |  |
| CN(c1nnc(-c2ccc(-n3cccn3)cc2)s1)C1CC(C)(C)NC(C)(C)C1 |  |  | 1100 | 2.8 |  |
| CN(c1nnc(-c2cc(-n3cccn3)ccc2O)s1)C1CC(C)(C)NC(C)(C)C1 |  |  | 1000 | 2.3 |  |
| CN(c1nnc(-c2c(O)cc(-c3cn[nH]c3)c(F)c2F)s1)C1CC(C)(C)NC(C)(C)C1 |  | 150 (≈ 67.3 µg/mL) | 3 | 2.7 | Papp B→A [12]: 23 ×10⁻⁶ cm/s; Papp A→B [14]: 8 ×10⁻⁶ cm/s; microsomal CLint [18]: 67 µL/min/mg |
| CN(c1nnc(-c2cc3ccccc3s2)s1)C1CC(C)(C)NC(C)(C)C1 | < 3 | > 1000 | 4470 | 1.7 |  |
| CN(c1nnc(-c2cc3cc(C#N)ccc3s2)s1)C1CC(C)(C)NC(C)(C)C1 | 12 | 170 (≈ 70 µg/mL) | 540 | 2.7 |  |
| COc1cc(-n2cccn2)ccc1-c1nnc(N(C)C2CC(C)(C)NC(C)(C)C2)s1 |  |  | 62 | 2.5 | clearance [3]: 72 mL/min/kg; Papp A→B [4]: 13.8 ×10⁻⁶ cm/s; AUC at 7 h [5]: 0.895 µM·h; Cmax [6]: 221 nM; Vd [7]: 10.9 L/kg; Papp B→A [9]: 6.9 ×10⁻⁶ cm/s; half-life [11]: 1.9 h |
